Laboratory results from patent publication US20240409556A1, “BENZOPIPERAZINE AND RELATED ANALOGS FOR INHIBITING YAP/TAZ-TEAD” (Springworks Therapeutics, Inc., priority 2023, published 2024).

test system: YAP/TAZ-TEAD transcription; test: Reporter gene assay for measuring the inhibition of YAP/TAZ-TEAD transcription (TEAD-responsive element luciferase reporter in Hek293T cells); type: cell-based; settings: 24 hours incubation
Experimental: Example 56: Activity of Compounds of the Disclosure in a Reporter Gene Assay for Measuring the Inhibition of YAP/TAZ-TEAD Transcription
Hek293T cells were cultured in DMEM supplemented with 10% fetal bovine serum, Sodium pyruvate, Sodium bicarbonate, L-glutamine. The cells were harvested and transiently transfected with TEAD-responsive element luciferase reporter. Transfected cells were plated in 384-well plate containing pre-diluted compounds. After 24 hours incubation at 37° C./5% CO2, assay plates were cooled to room temperature and levelled to an equal volume per well, prior to the addition of 25 uL luciferase substrate SteadyLite (Perkin Elmer)/well. The plate was shaken for 10 min at 600 rpm, centrifuged for 1 min at 500 rpm and measured with an Envision reader (PerkinElmer). The amount of relative light units produced by the TEAD reporter was used to calculate the percentage of inhibition.
The percent of reporter inhibition was calculated in the presence of a positive control inhibitor (100% inhibition) versus a condition with the presence of the vehicle basal activity of the reporter (0% inhibition). The ability of a test compound to inhibit this activity was determined as: Percentage inhibition=[[…]((RLU determined in the presence of vehicle−RLU determined for sample with test compound present) divided by (RLU determined in the presence of vehicle−RLU determined for sample with positive control inhibitor))]*100.
The activities of example compounds tested are depicted in Table 3. The activity ranges A, B and C refer to IC50 values in the reporter gene assay as follows: “A”: IC50<1 μM; “B”: 1 μM≤IC50≤10 μM and “C”: IC50>10 μM; NT=not tested.

| IC50 [µM] | SMILES |
| --- | --- |
| < 1 | C=CC(=O)N1CCN2c3ncccc3N(c3ccc(C(F)(F)F)cc3)CC2C1 (stereo not drawn) [28-En2, 1-(5-(4-(trifluoromethyl)phenyl)-5,6,6a,7,9,10-hexahydro-8H-pyrazino[1,2-a]pyrido[3,2-e]pyrazin-8-yl)prop-2-en-1-one] |
| < 1 | CC1(C(=O)O)CCN2c3ccccc3N(c3ccc(C(F)(F)F)cc3)CC2C1 [115-D2, (6aS,8S)— or (6aR,8S)— or (6aR,8R)— or (6aS,8R)-8-methyl-5-(4-(trifluoromethyl)phenyl)-6,6a,7,8,9,10-hexahydro-5H-pyrido[1,2-a]quinoxaline-8-carboxylic acid] |
| 1 to 10 | CC(=O)N1CCN2c3ccccc3N(c3ccc(C(F)(F)F)cc3)CC2C1 (single isomer, unassigned) [15-En1, (R)- or (S)-1-(6-(4-(trifluoromethyl)phenyl)-1,2,4,4a,5,6-hexahydro-3H-pyrazino[1,2-a]quinoxalin-3-yl)ethan-1-one] |
| < 1 | CC(=O)N1CC2CN(c3ccc(C(F)(F)F)cc3)c3ccccc3N2CC1C(=O)O (stereo not drawn) [compound 91, (cis)- or (trans)-3-acetyl-6-(4-(trifluoromethyl)phenyl)-2,3,4,4a,5,6-hexahydro-1H-pyrazino[1,2-a]quinoxaline-2-carboxylic acid] |
| < 1 | O=C(O)C1(F)CCN2c3ccccc3N(c3ccc(C(F)(F)F)cc3)CC2C1 [123-D3, (6aS,8S)- or (6aR,8S)- or (6aR,8R)- or (6aS,8R)-8-fluoro-5-(4-(trifluoromethyl)phenyl)-6,6a,7,8,9,10-hexahydro-5H-pyrido[1,2-a]quinoxaline-8-carboxylic acid] |
| < 1 | CC(=O)NCC1CN(c2ccc(C(F)(F)F)cc2)c2ccc(N(C)C)nc2O1 (single isomer, unassigned) [87-En2, (R)- or (S)-N-((6-(dimethylamino)-1-(4-(trifluoromethyl)phenyl)-2,3-dihydro-1H-pyrido[2,3-b][1,4]oxazin-3-yl)methyl)acetamide] |
| < 1 | O=C(O)C1(F)CCN2c3ccccc3N(c3ccc(C(F)(F)F)cc3)CC2C1 [123-D2, (6aS,8S)- or (6aR,8S)- or (6aR,8R)- or (6aS,8R)-8-fluoro-5-(4-(trifluoromethyl)phenyl)-6,6a,7,8,9,10-hexahydro-5H-pyrido[1,2-a]quinoxaline-8-carboxylic acid] |
| < 1 | CC(=O)NCC1CN(c2ccc(C(F)(F)F)cc2)c2ccccc2O1 (single isomer, unassigned) [36-En2, (R)- or (S)-N-((4-(4-(trifluoromethyl)phenyl)-3,4-dihydro-2H-benzo[b][1,4]oxazin-2-yl)methyl)acetamide] |
| < 1 | Cc1ccc2c(n1)N1CCC(C(=O)O)CC1CN2c1ccc(C(F)(F)F)cc1 [101-D3, (6aS,8S)— or (6aR,8S)— or (6aR,8R)— or (6aS,8R)-2-methyl-5-(4-(trifluoromethyl)phenyl)-6,6a,7,8,9,10-hexahydro-5H-dipyrido[1,2-a:3′,2′-e]pyrazine-8-carboxylic acid] |

same assay, conditions: Homo sapiens, HEK-293T, 24 h, 24 hours incubation

| IC50 [µM] | SMILES |
| --- | --- |
| < 1 | O=C(CO)N[C@@H]1C[C@@H]2CN(c3ccc(C(F)(F)F)cc3)c3cccnc3N2C1 [compound 95, 2-hydroxy-N-((6aR,8R)-5-(4-(trifluoromethyl)phenyl)-5,6,6a,7,8,9-hexahydropyrido[3,2-e]pyrrolo[1,2-a]pyrazin-8-yl)acetamide] |
| < 1 | O=C1CN(c2ccc(C(F)(F)F)cc2)c2ccccc2N1Cc1cn[nH]c1 [compound 80, 1-((1H-pyrazol-4-yl)methyl)-4-(4-(trifluoromethyl)phenyl)-3,4-dihydroquinoxalin-2(1H)-one] |
| < 1 | CC1(C(=O)O)CCN2c3ccccc3N(c3ccc(C(F)(F)F)cc3)CC2C1 (stereo not drawn) [compound 114, (cis)- or (trans)-8-methyl-5-(4-(trifluoromethyl)phenyl)-6,6a,7,8,9,10-hexahydro-5H-pyrido[1,2-a]quinoxaline-8-carboxylic acid] |
| > 10 | CC(=O)N1CCN2C(=O)CN(c3ccc(C(F)(F)F)cc3)CC2C1 (stereo not drawn) [compound 44, 8-acetyl-2-(4-(trifluoromethyl)phenyl)octahydro-4H-pyrazino[1,2-a]pyrazin-4-one] |
| < 1 | O=C(O)C1CCN2c3ncc(Cl)cc3N(c3ccc(C(F)(F)F)cc3)CC2C1 (stereo not drawn) [100A, (cis)- or (trans)-3-chloro-5-(4-(trifluoromethyl)phenyl)-6,6a,7,8,9,10-hexahydro-5H-dipyrido[1,2-a:3′,2′-e]pyrazine-8-carboxylic acid] |
| < 1 | CNC(=O)N1CCN2c3ncccc3N(c3ccc(C(F)(F)F)cc3)CC2C1 (stereo not drawn) [compound 52, N-methyl-5-(4-(trifluoromethyl)phenyl)-5,6,6a,7,9,10-hexahydro-8H-pyrazino[1,2-a]pyrido[3,2-e]pyrazine-8-carboxamide] |
| < 1 | CC(=O)N1CC(N2CCN(c3ccc(C(F)(F)F)cc3)c3ccccc32)C1 [compound 56, 1-(3-(4-(4-(trifluoromethyl)phenyl)-3,4-dihydroquinoxalin-1(2H)-yl)azetidin-1-yl)ethan-1-one] |
| < 1 | O=C(O)C1(O)CCN2c3ccccc3N(c3ccc(C(F)(F)F)cc3)CC2C1 (stereo not drawn) [126A, (cis)- or (trans)-8-hydroxy-5-(4-(trifluoromethyl)phenyl)-6,6a,7,8,9,10-hexahydro-5H-pyrido[1,2-a]quinoxaline-8-carboxylic acid] |
| 1 to 10 | FC(F)(F)c1ccc(N2CC3CC(c4nnn[nH]4)CCN3c3ccccc32)cc1 (stereo not drawn) [121-D1, 8-(1H-tetrazol-5-yl)-5-(4-(trifluoromethyl)phenyl)-6,6a,7,8,9,10-hexahydro-5H-pyrido[1,2-a]quinoxaline] |
| < 1 | NCC(=O)N[C@@H]1C[C@@H]2CN(c3ccc(C(F)(F)F)cc3)c3cccnc3N2C1 [compound 97, 2-amino-N-((6aR,8R)-5-(4-(trifluoromethyl)phenyl)-5,6,6a,7,8,9-hexahydropyrido[3,2-e]pyrrolo[1,2-a]pyrazin-8-yl)acetamide] |
| < 1 | FC(F)(F)c1ccc(N2CCN(Cc3cnco3)c3ccccc32)cc1 [compound 67, 5-((4-(4-(trifluoromethyl)phenyl)-3,4-dihydroquinoxalin-1(2H)-yl)methyl)oxazole] |
| < 1 | O=C(NO)C1CCN2c3ccccc3N(c3ccc(C(F)(F)F)cc3)CC2C1 [116B-En1, (6aS,8S)- or (6aR,8S)- or (6aR,8R)- or (6aS,8R)-N-hydroxy-5-(4-(trifluoromethyl)phenyl)-6,6a,7,8,9,10-hexahydro-5H-pyrido[1,2-a]quinoxaline-8-carboxamide] |
| < 1 | O=C(O)C1CCN(c2ccccc2Oc2ccc(C(F)(F)F)cc2)CC1 [compound 120, 1-(2-(4-(trifluoromethyl)phenoxy)phenyl)piperidine-4-carboxylic acid] |
| < 1 | Cc1ncc(CN2CCN(c3ccc(C(F)(F)F)cc3)c3ccccc32)[nH]1 [compound 61, 1-((2-methyl-1H-imidazol-5-yl)methyl)-4-(4-(trifluoromethyl)phenyl)-1,2,3,4-tetrahydroquinoxaline] |
| < 1 | C=CC(=O)NCC1CN(c2ccc(C(F)(F)F)cc2)c2cccnc2N1C (stereo not drawn) [compound 27, N-((4-methyl-1-(4-(trifluoromethyl)phenyl)-1,2,3,4-tetrahydropyrido[2,3-b]pyrazin-3-yl)methyl)acrylamide] |
| 1 to 10 | O=S1(=O)CCN2c3ncccc3N(c3ccc(C(F)(F)F)cc3)CC2C1 (stereo not drawn) [compound 68, 5-(4-(trifluoromethyl)phenyl)-5,6,6a,7,9,10-hexahydropyrido[3′,2′:5,6]pyrazino[2,1-c][1,4]thiazine 8,8-dioxide] |
| > 10 | CC(=O)NCC1CN(c2ccc(C(F)(F)F)cc2)c2ccccc2N1CCO (stereo not drawn) [compound 2, N-((1-(2-hydroxyethyl)-4-(4-(trifluoromethyl)phenyl)-1,2,3,4-tetrahydroquinoxalin-2-yl)methyl)acetamide] |
| < 1 | O=C(O)C1CCN2c3ncccc3N(c3ccc(C(F)(F)F)cc3)CC2C1 (single isomer, unassigned) [96A, (cis)- or (trans)-5-(4-(trifluoromethyl)phenyl)-6,6a,7,8,9,10-hexahydro-5H-dipyrido[1,2-a:3′,2′-e]pyrazine-8-carboxylic acid] |
| > 10 | CS(=O)(=O)N1CCN2C(=O)CN(c3ccc(C(F)(F)F)cc3)CC2C1 (stereo not drawn) [compound 71, 8-(methylsulfonyl)-2-(4-(trifluoromethyl)phenyl)octahydro-4H-pyrazino[1,2-a]pyrazin-4-one] |
| < 1 | COC(=O)N[C@@H]1C[C@@H]2CN(c3ccc(C(F)(F)F)cc3)c3cccnc3N2C1 [compound 83, methyl ((6aR,8R)-5-(4-(trifluoromethyl)phenyl)-5,6,6a,7,8,9-hexahydropyrido[3,2-e]pyrrolo[1,2-a]pyrazin-8-yl)carbamate] |

| SMILES | IC50 [µM] |
| --- | --- |
| C=CC(=O)N1CCN2C(C1)CN(c1ccc(C(F)(F)F)cc1)C1CCC12 (single isomer, unassigned) [42(Dia1), 1-(3-(4-(trifluoromethyl)phenyl)decahydro-6H-cyclobuta[e]pyrazino[1,2-a]pyrazin-6-yl)prop-2-en-1-one] | < 1 |
